{"source": "patent US20240279237A1", "about": "“FUSED BICYCLIC HETEROARYL COMPOUNDS USEFUL AS NLRP3 INHIBITORS” (Hoffmann-La Roche Inc., priority 2021, published 2024)", "note": "Counter-ions that a name gives are not always drawn.", "data": [{"molecular_target": "T1, NLRP3 (Homo sapiens, UniProt Q96P20)", "T1 construct": "Seed THP-1 cells (25,000 cells/well) containing 1.0 μg/ml LPS in 40 μl of RPMI medium; host or cells: THP-1 cells", "T1 sequence (Q96P20 whole entry)": "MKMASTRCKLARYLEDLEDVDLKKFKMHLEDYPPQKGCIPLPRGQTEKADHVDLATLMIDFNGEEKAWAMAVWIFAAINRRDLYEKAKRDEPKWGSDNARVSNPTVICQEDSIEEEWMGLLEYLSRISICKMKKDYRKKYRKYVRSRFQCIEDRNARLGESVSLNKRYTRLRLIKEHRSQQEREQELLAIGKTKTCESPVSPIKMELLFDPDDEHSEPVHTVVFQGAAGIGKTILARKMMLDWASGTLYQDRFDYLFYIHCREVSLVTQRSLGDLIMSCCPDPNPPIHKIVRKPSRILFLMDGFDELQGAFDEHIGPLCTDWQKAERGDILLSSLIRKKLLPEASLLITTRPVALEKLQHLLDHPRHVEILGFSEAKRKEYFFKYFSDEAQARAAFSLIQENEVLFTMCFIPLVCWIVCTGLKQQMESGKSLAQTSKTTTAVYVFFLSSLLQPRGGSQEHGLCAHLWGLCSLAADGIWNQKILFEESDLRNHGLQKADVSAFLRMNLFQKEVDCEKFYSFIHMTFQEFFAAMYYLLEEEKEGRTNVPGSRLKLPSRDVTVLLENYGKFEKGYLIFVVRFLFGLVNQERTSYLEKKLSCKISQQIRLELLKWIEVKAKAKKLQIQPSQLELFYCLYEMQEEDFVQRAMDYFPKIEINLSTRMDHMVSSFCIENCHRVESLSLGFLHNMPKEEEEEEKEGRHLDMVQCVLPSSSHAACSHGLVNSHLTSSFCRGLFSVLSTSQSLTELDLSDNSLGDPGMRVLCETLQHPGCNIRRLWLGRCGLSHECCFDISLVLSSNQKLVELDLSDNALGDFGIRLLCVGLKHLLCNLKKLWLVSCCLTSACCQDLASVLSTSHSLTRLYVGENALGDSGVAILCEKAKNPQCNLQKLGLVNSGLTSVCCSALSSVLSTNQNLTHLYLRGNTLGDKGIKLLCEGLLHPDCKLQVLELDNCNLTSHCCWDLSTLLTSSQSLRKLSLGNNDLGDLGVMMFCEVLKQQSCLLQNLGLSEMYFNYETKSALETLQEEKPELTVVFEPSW", "assay": "THP-1 Cells Pyroptosis Assay", "format": "cell-based", "conditions": "THP-1 cells with 1.0 μg/ml LPS; compound 3 hours; nigericin 5 μM 1 hr; resazurin readout", "method": "The cells were routinely passaged and grown to confluency (˜10^6 cells/ml). On the day of the experiment, THP-1 cells were harvested and resuspended into RPMI medium (without FBS). The cells were then counted and viability (>90%) checked by Trypan blue (Sigma #T8154). […] To this diluted cell solution was added LPS (Sigma #L4524) to give a 1 μg/ml Final Assay Concentration (FAC). 40 μl of the final preparation was aliquoted into each well of a 96-well plate. The plate thus prepared was used for compound screening.\nThe following method step-by-step assay was followed for compound screening. • 1. […] Incubate for 3 hours at 37° C., 5% CO2 • 4. Add 5 μl nigericin (Sigma #N7143) (FAC 5 μM) to all wells • 5. Incubate for 1 hr at 37° C., 5% CO2 • 6. At the end of the incubation period, spin plates at 300×g for 3 mins and remove supernatant • 7. Then add 50 μl of resazurin (Sigma #R7017) (FAC 100 μM resazurin in RPMI medium without FBS) and incubate plates for a further 1-2 hours at 37° C. and 5% CO2 • 8.", "units": {"IC50": "nM"}, "values": [{"compound": "2-[2-[[(3R or 3S)-1-Ethyl-3-piperidyl]amino]-1H-imidazo[4,5-b]pyridin-5-yl]-3-methyl-5-(trifluoromethyl)phenol [Example 18A]", "IC50": 4.1}, {"compound": "2-[2-[[(3S or 3R)-1-Ethyl-3-piperidyl]amino]-1H-imidazo[4,5-b]pyridin-5-yl]-3-methyl-5-(trifluoromethyl)phenol [Example 18B]", "IC50": 392}, {"compound": "3-Methyl-2-[2-[[(2R)-1-methylazetidin-2-yl]methylamino]oxazolo[4,5-b]pyridin-5-yl]-5-(trifluoromethyl)phenol or 3-methyl-2-[2-[[(2S)-1-methylazetidin-2-yl]methylamino]oxazolo[4,5-b]pyridin-5-yl]-5-(trifluoromethyl)phenol [Example 66A]", "IC50": 398}, {"compound": "3-Methyl-2-[2-[[(2S)-1-methylazetidin-2-yl]methylamino]oxazolo[4,5-b]pyridin-5-yl]-5-(trifluoromethyl)phenol or 3-methyl-2-[2-[[(2R)-1-methylazetidin-2-yl]methylamino]oxazolo[4,5-b]pyridin-5-yl]-5-(trifluoromethyl)phenol [Example 66B]", "IC50": 256}, {"compound": "5-Chloro-2-[2-[[(3R)-1-ethyl-3-piperidyl]amino]oxazolo[4,5-b]pyridin-5-yl]-3-(trifluoromethoxy)phenol;2,2,2-trifluoroacetic acid [Example 114]", "IC50": 1.1}, {"compound": "5-Chloro-2-[2-[[(3R)-1-ethyl-3-piperidyl]amino]oxazolo[4,5-b]pyridin-5-yl]-4-fluoro-3-methyl-phenol;2,2,2-trifluoroacetic acid salt [Example 22]", "IC50": 5.4}, {"compound": "CNC1CCCC(Nc2nc3nc(-c4c(C)cc(C(F)(F)F)cc4O)ccc3o2)C1", "note": "(mixture of isomers) [Example 7, 3-Methyl-2-[2-[[3-(methylamino)cyclohexyl]amino]oxazolo[4,5-b]pyridin-5-yl]-5-(trifluoromethyl)phenol]", "IC50": 82.1}, {"compound": "CCN1CCCC(Nc2nc3nc(-c4c(C)cc(C(F)(F)F)cc4O)ccc3o2)C1", "note": "(racemic) [Example 1, (rac)-2-[2-[(1-Ethyl-3-piperidyl)amino]oxazolo[4,5-b]pyridin-5-yl]-3-methyl-5-(trifluoromethyl)phenol]", "IC50": 1.9}, {"compound": "Cc1cc(C(F)(F)F)cc(O)c1-c1ccc2oc(N3CCOCC3CN(C)C)nc2n1", "note": "(racemic) [Example 2, (rac)-2-[2-[3-[(Dimethylamino)methyl]morpholin-4-yl]oxazolo[4,5-b]pyridin-5-yl]-3-methyl-5-(trifluoromethyl)phenol]", "IC50": 17.4}, {"compound": "Cc1cc(C(F)(F)F)cc(O)c1-c1ccc2oc(N3CCCC(O)C3)nc2n1", "note": "(racemic) [Example 3, (rac)-1-[5-[2-Hydroxy-6-methyl-4-(trifluoromethyl)phenyl]oxazolo[4,5-b]pyridin-2-yl]piperidin-3-ol]", "IC50": 75.4}, {"compound": "Cc1cc(C(F)(F)F)cc(O)c1-c1ccc2oc(N3CCOC(CO)C3)nc2n1", "note": "(racemic) [Example 5, (rac)-[2-[2-(Hydroxymethyl)morpholin-4-yl]oxazolo[4,5-b]pyridin-5-yl]-3-methyl-5-(trifluoromethyl)phenol]", "IC50": 31.9}, {"compound": "Cc1cc(C(F)(F)F)cc(O)c1-c1ccc2oc(C3CCC(=O)NC3)nc2n1", "note": "(racemic) [Example 9, (rac)-5-(5-(2-Hydroxy-6-methyl-4-(trifluoromethyl)phenyl)oxazolo[4,5-b]pyridin-2-yl) piperidin-2-one]", "IC50": 15.3}, {"compound": "CNC1CCCN(c2nc3nc(-c4c(C)cc(C(F)(F)F)cc4O)ccc3o2)C1", "note": "(racemic) [Example 10, (rac)-3-Methyl-2-[2-[3-(methylamino)-1-piperidyl]oxazolo[4,5-b]pyridin-5-yl]-5-(trifluoromethyl) phenol]", "IC50": 107}, {"compound": "Cc1cc(C(F)(F)F)cc(O)c1-c1ccc2oc(NC3CCCOC3)nc2n1", "note": "(racemic) [Example 11, (rac)-3-Methyl-2-[2-(tetrahydropyran-3-ylamino)oxazolo[4,5-b]pyridin-5-yl]-5-(trifluoromethyl)phenol]", "IC50": 217}, {"compound": "Cc1cc(C(F)(F)F)cc(O)c1-c1ccc2[nH]c(C3CCCCN3C)nc2n1", "note": "(racemic) [Example 16, (rac)-3-Methyl-2-(2-(1-methylpiperidin-2-yl)-3H-imidazo[4,5-b]pyridin-5-yl)-5-(trifluoromethyl)phenol]", "IC50": 330}, {"compound": "Cc1cc(C(F)(F)F)cc(O)c1-c1ccc2[nH]c(C3CCCN3)nc2n1", "note": "(racemic) [Example 17, (rac)-3-Methyl-2-(2-(pyrrolidin-2-yl)-1H-imidazo[4,5-b]pyridin-5-yl)-5-(trifluoro-methyl)phenol]", "IC50": 183}, {"compound": "Cc1cc(C#N)cc(O)c1-c1ccc2oc(NC3CCCN4CCCC34)nc2n1", "note": "(racemic) [Example 29, (rac)-4-[2-(1,2,3,5,6,7,8,8a-Octahydroindolizin-8-ylamino)oxazolo[4,5-b]pyridin-5-yl]-3-hydroxy-5-methyl-benzonitrile]", "IC50": 5.1}, {"compound": "CCN1CCCC(Nc2nc3nc(-c4c(C)cc(C(F)(F)F)cc4O)cnc3o2)C1", "note": "(racemic) [Example 32, (rac)-2-[2-[(1-Ethyl-3-piperidyl)amino]oxazolo[4,5-b]pyrazin-5-yl]-3-methyl-5-(trifluoromethyl)phenol;2,2,2-trifluoroacetic acid salt]", "IC50": 3}, {"compound": "Cc1cc(C(F)(F)F)cc(O)c1-c1ccc2oc(NC3CCOC3)nc2n1", "note": "(racemic) [Example 38, (rac)-3-Methyl-2-[2-(tetrahydrofuran-3-ylamino)oxazolo[4,5-b]pyridin-5-yl]-5-(trifluoromethyl)phenol]", "IC50": 85.3}, {"compound": "Cc1cc(Cl)cc(O)c1-c1cc(N2CCCC2=O)c2oc(N[C@@H]3CCCN(C)C3)nc2n1", "note": "(racemic) [Example 60, 1-[5-(4-Chloro-2-hydroxy-6-methyl-phenyl)-2-[[rac-(3R)-1-methyl-3-piperidyl]amino]oxazolo[4,5-b]pyridin-7-yl]pyrrolidin-2-one]", "IC50": 17.9}, {"compound": "Cc1cc(C(F)(F)F)cc(O)c1-c1ccc2oc(N3CCO[C@H]4CNC[C@@H]43)nc2n1", "note": "(racemic) [Example 64, 3-Methyl-2-[2-[rac-(4aS,7aS)-3,4a,5,6,7,7a-hexahydro-2H-pyrrolo[3,4-b][1,4]oxazin-4-yl]oxazolo[4,5-b]pyridin-5-yl]-5-(trifluoromethyl)phenol;2,2,2-trifluoroacetic acid]", "IC50": 4.9}, {"compound": "Cc1cc(Cl)cc(O)c1-c1ccc2oc(N[C@@H]3CCCN(C[C@@H]4CC[C@H]4O)C3)nc2n1", "note": "(racemic) [Example 118A, 5-chloro-2-[2-[[(3R)-1-[[rac trans-2-hydroxycyclobutyl]methyl]-3-piperidyl]amino]oxazolo[4,5-b]pyridin-5-yl]-3-methyl-phenol or 5-chloro-2-[2-[[(3R)-1-[[rac cis-2-hydroxycyclobutyl]methyl]-3-piperidyl]amino]oxazolo[4,5-b]pyridin-5-yl]-3-methyl-phenol]", "IC50": 50.8}, {"compound": "Cc1cc(Cl)cc(O)c1-c1ccc2oc(N[C@@H]3CCCN(C[C@@H]4CC[C@H]4O)C3)nc2n1", "note": "(racemic) [Example 118B, 5-chloro-2-[2-[[(3R)-1-[[rac trans-2-hydroxycyclobutyl]methyl]-3-piperidyl]amino]oxazolo[4,5-b]pyridin-5-yl]-3-methyl-phenol or 5-chloro-2-[2-[[(3R)-1-[[rac cis-2-hydroxycyclobutyl]methyl]-3-piperidyl]amino]oxazolo[4,5-b]pyridin-5-yl]-3-methyl-phenol]", "IC50": 30.6}, {"compound": "Cc1cc(C(F)(F)F)cc(O)c1-c1ccc2oc(N3CCOCC3CN(C)C)nc2n1", "note": "(single isomer, unassigned) [Example 2A, 2-[2-[(3R or 3S)-3-[(Dimethylamino)methyl]morpholin-4-yl]oxazolo[4,5-b]pyridin-5-yl]-3-methyl-5-(trifluoromethyl)phenol]", "IC50": 129}, {"compound": "Cc1cc(C(F)(F)F)cc(O)c1-c1ccc2oc(N3CCOCC3CN(C)C)nc2n1", "note": "(single isomer, unassigned) [Example 2B, 2-[2-[(3S or 3R)-3-[(Dimethylamino)methyl]morpholin-4-yl]oxazolo[4,5-b]pyridin-5-yl]-3-methyl-5-(trifluoromethyl)phenol]", "IC50": 16.9}, {"compound": "Cc1cc(C(F)(F)F)cc(O)c1-c1ccc2oc(N3CCCC(O)C3)nc2n1", "note": "(single isomer, unassigned) [Example 3A, (3R or 3S)-1-[5-[2-hydroxy-6-methyl-4-(trifluoromethyl)phenyl]oxazolo[4,5-b]pyridin-2-yl]piperidin-3-ol]", "IC50": 75}, {"compound": "Cc1cc(C(F)(F)F)cc(O)c1-c1ccc2oc(N3CCCC(O)C3)nc2n1", "note": "(single isomer, unassigned) [Example 3B, (3S or 3R)-1-[5-[2-hydroxy-6-methyl-4-(trifluoromethyl)phenyl]oxazolo[4,5-b]pyridin-2-yl]piperidin-3-ol]", "IC50": 28.6}, {"compound": "Cc1cc(C#N)cc(O)c1-c1ccc2oc(N3CCC4CCN(C)CC43)nc2n1", "note": "(single isomer, unassigned) [Example 27A, 4-[2-[(3aS,7aR or 3aR,7aS)-6-methyl-3,3a,4,5,7,7a-hexahydro-2H-pyrrolo[2,3-c]pyridin-1-yl]oxazolo[4,5-b]pyridin-5-yl]-3-hydroxy-5-methyl-benzonitrile]", "IC50": 578}]}]}
